Like-named read-outs stand apart in the source and are kept apart here.
Test system: female Sprague Dawley rats
Settings: for ocular histopathology findings, Day 28: 10 rats
[1] = 100 mg/kg PO QD Days 1-14 (Group 4)
[2] = 200 mg/kg PO QD Days 1-14 (Group 5)
[3] = 200 mg/kg PO QD Days 1-14 (Group 5), 9 rats

In the case of `CC(C)n1cc(C(=O)Nc2ccc(Oc3ccnc4[nH]nc(N[C@H](C)CO)c34)c(F)c2)c(=O)n(-c2ccc(F)cc2)c1=O.Cl` [Compound 1 HCl, (R)—N-(3-fluoro-4-((3-((1-hydroxypropan-2-yl)amino)-1H-pyrazolo[3,4-b]pyridin-4-yl)oxy)phenyl)-3-(4-fluorophenyl)-1-isopropyl-2,4-dioxo-1,2,3,4-tetrahydropyrimidine-5-carboxamide hydrochloride], the “ocular histopathology findings, Day 56” value (100 mg/kg PO QD Days 1-7 (Group 2), recovery necropsy, 5 rats) was “unilateral minimal diffuse atrophy of the ONL which was considered an equivocal change”, the “ocular histopathology findings, Day 28” value (100 mg/kg PO QD Days 1-7 (Group 2; Test Article 1, Schedule 1)) was “No test article-related observations” and the “incidence of retinal changes (overall)” value [1] was “low incidence”. For the same molecule, the “reversibility of ocular (retinal) changes” value [1] was “did not reverse”, the “animals with ocular (retinal) changes, Day 28” value (100 mg/kg PO QD Days 1-14 (Group 4; Test Article 1, Schedule 2), 9 rats) was “one animal (4F-7) had moderate atrophy of the outer nuclear layer (ONL) of the retina” and the “ocular histopathology findings, Day 28” value (200 mg/kg PO QD Days 1-7 (Group 3; Test Article 2, Schedule 1)) was “No test article-related observations”. The “incidence of retinal changes (overall)” value [2] was “high incidence”, the “reversibility of ocular (retinal) changes” value [2] was “did not reverse” and the “animals with mild atrophy of ONL (thinning to approximately 6-7 nuclei), Day 28” value [3] was “one animal”. For the same molecule, the “animals with minimal atrophy of ONL (thinning to approximately 7-8 nuclei), Day 28” value [3] was “two animals”, the “animals with minimal degeneration of the rods and cones layer, Day 28” value [3] was “six animals” and the “animals with moderate atrophy of ONL (thinning to approximately 4-5 nuclei), Day 28” value [3] was “five animals”. For the same molecule, the “animals with moderate degeneration of rod and cone processes, Day 28” value [3] was “two animals”, the “animals with ocular (retinal) changes, Day 28” value (200 mg/kg PO QD Days 1-14 (Group 5; Test Article 2, Schedule 2), 9 rats) was “retinal changes were observed in eight animals” and the “tolerability (body weight, clinical observations, deaths)” value (female rats, 100 or 200 mg/kg PO QD for 7 or 14 days) was “well tolerated with no effects on body weight, adverse clinical observations or deaths related to test article”.

Source: patent US20230117328A1, “METHODS TO TREAT CANCER USING (R)-N-(3-FLUORO-4-((3-((1-HYDROXYPROPAN-2-YL)AMINO)-1H-PYRAZOLO[3,4-B]PYRIDIN-4-YL)OXY)PHENYL)-3-(4-FLUOROPHENYL)-1-ISOPROPYL-2,4-DIOXO-1,2,3,4-TETRAHYDROPYRIMIDINE-5-CARBOXAMIDE” (Array BioPharma Inc., priority 2020, published 2023)
